Measurements from PMC11994644, “In vivo quantification of [^11C]BIO-1819578 in non-human primates, a novel radioligand for O-GlcNAcase” (Journal of Cerebral Blood Flow & Metabolism, 2025).
Entries after “also recorded” stand apart in the source; their conditions may differ.

How the values were obtained:
[1] = system: O-GlcNAcase (OGA); assay: OGA occupancy after pretreatment with Thiamet-G (revisited Lassen plot); format: in vivo, cynomolgus monkey
[2] = molecular target: OGA; conditions: cited from earlier work

Compound: CCN=C1N[C@@H]2[C@@H](O)[C@H](O)[C@@H](CO)O[C@@H]2S1 [Thiamet-G]
- occupancy ([1]; Thiamet-G 10 mg/kg i.v. 45 minutes prior to PET, 2TCM, one NHP): 97.6%
- effect of pretreatment on [^11C]BIO-1819578 distribution volume (VT) ([1]; Thiamet-G 10 mg/kg i.v., NHP 3): reduced the distribution volume in all brain regions; also recorded: decreased in all regions

Compound: CC(=O)Nc1ncc(CN2CCC[C@H](N(C)c3ccc(F)cn3)C2)s1 [BIO-1819578]
- Kd [2]: 2.3 nM
